The source of these data is US9861606B2, “Therapeutic for treating inflammatory lung disorders” (University College Cardiff Consultants Limited, priority 2012, dated 2018).

One assay deals with T1, human CaSR (Homo sapiens, UniProt P41180).
T1 construct: expressed in transfected cells; control HEK-0 with empty vector
T1 sequence (P41180 20-1078): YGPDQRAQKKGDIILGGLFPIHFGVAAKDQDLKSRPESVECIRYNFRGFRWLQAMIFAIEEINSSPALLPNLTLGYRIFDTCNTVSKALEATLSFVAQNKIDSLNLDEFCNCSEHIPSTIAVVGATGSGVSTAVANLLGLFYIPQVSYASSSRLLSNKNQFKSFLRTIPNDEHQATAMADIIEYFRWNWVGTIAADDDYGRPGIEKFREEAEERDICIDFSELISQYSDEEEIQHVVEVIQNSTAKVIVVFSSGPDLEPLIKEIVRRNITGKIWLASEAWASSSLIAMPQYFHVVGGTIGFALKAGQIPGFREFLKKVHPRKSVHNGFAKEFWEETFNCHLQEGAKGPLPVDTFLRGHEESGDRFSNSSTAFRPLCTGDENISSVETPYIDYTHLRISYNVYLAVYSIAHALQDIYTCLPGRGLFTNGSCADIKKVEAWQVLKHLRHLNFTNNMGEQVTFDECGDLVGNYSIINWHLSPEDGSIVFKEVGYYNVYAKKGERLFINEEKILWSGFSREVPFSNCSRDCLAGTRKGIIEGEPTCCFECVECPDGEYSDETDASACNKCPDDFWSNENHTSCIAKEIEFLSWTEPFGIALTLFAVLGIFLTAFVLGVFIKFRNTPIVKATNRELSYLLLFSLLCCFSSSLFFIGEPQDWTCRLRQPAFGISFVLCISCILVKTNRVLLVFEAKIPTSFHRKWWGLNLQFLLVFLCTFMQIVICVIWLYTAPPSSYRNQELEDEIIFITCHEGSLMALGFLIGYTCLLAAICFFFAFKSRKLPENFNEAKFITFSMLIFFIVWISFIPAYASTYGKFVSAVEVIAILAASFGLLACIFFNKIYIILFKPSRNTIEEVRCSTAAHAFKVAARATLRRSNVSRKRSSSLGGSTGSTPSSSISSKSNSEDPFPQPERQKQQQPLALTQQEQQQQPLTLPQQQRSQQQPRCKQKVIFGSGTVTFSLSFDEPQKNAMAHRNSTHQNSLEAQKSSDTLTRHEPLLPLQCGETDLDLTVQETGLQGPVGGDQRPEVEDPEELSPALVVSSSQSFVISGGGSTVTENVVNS
Briefly: Intracellular Ca2+ (fura-2, F/F0) in HEK293 cells stably expressing human CaSR. The settings on record: HEK-CaSR; for CaSR activation (Ca2+i increase) by agonist: 300 nM poly-L-arginine, 1 mM spermine, 10 μg/ml ECP, no response in HEK-0. Format: cell-based. How it is done:
The structurally unrelated calcilytic NPS2143 also prevents spermine-induced CaSR activation (D). […] Note that ECP serum concentrations in asthmatic subjects are believed to be 30 μg/ml. n=121-487 cells, 3-9 experiments. Data are mean±SEM. Where differences are significant, they are shown above the bars. FIG. 6. Ca^2+o activates the CaSR, an effect which can be prevented by the calcilytic NPS89636. HEK293 cells stably expressing the human CaSR (HEK-CaSR) or transfected with empty vector (HEK-0) were loaded with 4 μM fura-2 AM and exposed to 5 mM Ca^2+o in the absence or presence of the calcilytic, NPS89636 (100 nM). Data are from >3 experiments and 121-386 cells. Significant differences are shown above the bars. […] The ability of a structurally unrelated calcilytic, NPS2143 (1-10 μM), was also tested on spermine-induced Ca^2+i mobilisation in HEK-CaSR. Ca^2+i release was measured as peak/baseline fluorescence (F/F0). Note that ECP serum concentrations in asthmatic subjects increase with disease severity and are believed to reach 30 μg/ml.

The test system of assay [1] is mouse intralobular bronchi. The settings on record: spermine 10 μM-3 mM cumulative, ACh-precontracted to ~50% tone.
Experimental: A. Intralobular bronchi were dissected from wild type C57/Bl6 mice (3-4 month of age), mounted upon a wire myograph and bubbled with 95% O2/5% CO2 in the presence of an extracellular solution containing 1 mM Ca^2+o. […] Data are mean±SEM, n=3. B. Intralobular bronchi were dissected from wild type (sm22α-Cre^−/−/floxed-CaSR^+/+) and CaSR knockout (sm22α-Cre^+/+/floxed-CaSR^+/+) mice and were then mounted on a wire myograph, as described in (A). […] Percentage of contraction (upwards deflection from zero of the relaxation curve) or relaxation (downwards deflection from zero of the relaxation curve) were calculated from the tension data. Data are mean±SEM, n=3 per genotype. […] Second/third order intralobular bronchi were dissected from the lung left lobe of WT or CaSR KO mice, mounted in small vessel myograph using stainless steel wires (d=40 micrometers) in a Krebs' solution bubbled with 95% O2/5% CO2. Bronchi were left to settle at 37° C. for 30 min, then gradually stretched to reach 2 mN of passive tension. After 30 min of equilibration time, the reactivity of the bronchi was tested by addition of 40 mM KCl to the bath. […] Data are shown as mean±SEM percentage change from baseline, where upwards deflection from zero represents contraction, whilst downwards deflection from zero of the relaxation curve represents relaxation. […] WT: n=6; KO: n=7. *p<0.05; **p<0.01.
For assay [2], the system named is mouse intralobular bronchi. The settings on record: 300 μM spermine, 15 min pre-treatment.
Experimental: A. Intralobular bronchi were dissected from wild type C57/Bl6 mice (3-4 month of age), mounted upon a wire myograph and bubbled with 95% O2/5% CO2 in the presence of an extracellular solution containing 1 mM Ca^2+o. […] Data are mean±SEM, n=3. B. Intralobular bronchi were dissected from wild type (sm22α-Cre^−/−/floxed-CaSR^+/+) and CaSR knockout (sm22α-Cre^+/+/floxed-CaSR^+/+) mice and were then mounted on a wire myograph, as described in (A). […] Percentage of contraction (upwards deflection from zero of the relaxation curve) or relaxation (downwards deflection from zero of the relaxation curve) were calculated from the tension data. Data are mean±SEM, n=3 per genotype. […] Second/third order intralobular bronchi were dissected from the lung left lobes of WT or KO mice, mounted in small vessel myograph using stainless steel wires (d=40 micrometers) and maintained in a Krebs solution bubbled with 95% O2/5% CO2. Bronchi were left to settle at 37° C. for 30 min, then they were gradually stretched to reach 2 mN of passive tension. After 30 min equilibration time, reactivity of the bronchi was tested by addition of 40 mM KCl to the bath. […] Data are shown as mean±SEM percentage of contraction normalized to the maximal contraction in control. […] Bronchi were left to settle at 37° C. for 30 min, then they were gradually stretched to reach 2 mN of passive tension. […]
The next assay concerns the target T2, CaSR in human ASM cells (Homo sapiens, UniProt P41180).
T2 construct: endogenous in cells; host or cells: primary human airway smooth muscle cells explanted from bronchial biopsies
T2 sequence (P41180 20-1078): T1 sequence (P41180 20-1078)
Briefly: Intracellular Ca2+ signalling (Fura-2) in primary human airway smooth muscle cells. The class given is cell-based. The settings on record: spermine 0.1-3 mM; ECPs 1-10 micrograms/ml. How it is done:
Human ASM cells, loaded with Fura-2 AM, show elevation of [Ca^2+]i (F/F0) when exposed to increased [Ca^2+]o (A, n=7) or spermine (B, n=35; mean±SEM). […] In the presence of 5 mM [Ca^2+]o (saturating for CaSR, see A), the response to ECP, but not to BK, is ablated, consistent with CaSR activation by ECP. D), transfection of a “dominant negative” CaSR (CaSR DN) prevents spermine-dependent increase in [Ca^2+]i in human ASM cells, an effect which cannot be seen in MOCK-transfected cells.
Effects of Polycations in Human ASM Cells In Vitro
Once primary human airway smooth muscle cells cell cultures were established at 80-90% confluence using the protocol described above, the endogenous CaSR was activated by exposing these cells to pathophysiologically relevant concentrations of ECPs (1-10 micrograms/ml), spermine (0.1-3 mM) and Ca^2+o (1-5 mM) to determine the effects on intracellular Ca^2+i signalling (using the Ca^2+-sensitive fluorescent dye, Fura-2).

The test system of another assay is BalbC mice. Briefly: Polycation-induced bronchial hyper-reactivity (Penh, plethysmography) in methacholine-challenged conscious mice. Format: in vivo, mouse. The settings on record: nebulised poly-L-arginine 3 μM, 1 hour; conscious BalbC mice. How it is done: FIG. 5. […] prevent polycation-evoked BHR in methacholine-challenged mice. […] After the treatment, animals were placed in plethysmography chambers (Buxco, USA), allowed to settle for 10 minutes, and then they were challenged with methacholine (MCh, 0.1-10 mg/ml). Responses to methacholine obtained from the animals that have not received any treatments are shown in black symbols. From our previous estimates, 1-5% of the nebulised drug reaches the lung epithelium. […] FIG. 12. […] Male BalbC mice ( 25 g) were purchased from Harlan 1 week before the experimental protocols were performed. […] On the day of the experiment, the body weight of each mouse was recorded and mice were allowed to acclimatise to the chamber for at least 10 min before recordings were made. Then, respiratory activity was recorded for 5 min, to establish baseline value for Penh. […] Data were recorded for 3 minutes after each aerosol administration. The Penh values at each MCh concentration were averaged and expressed as a proportion of baseline Penh (Penh before treatment). […] The Penh values at each MCh concentration were averaged and expressed as a proportion of that day's baseline Penh (Penh after treatment). […] Effect of Polycations and of the Calcilytic NPS89636 on Bronchial Hyper-Reactivity in Unrestrained, Conscious Mice In Vivo Baseline airway hyper-responsiveness was measured by plethysmography. […]

On to `CC(C)(Cc1ccc2ccccc2c1)NC[C@@H](O)COc1cccc(Cl)c1C#N.Cl` [NPS2143, reference compound], for which the “Effect of calcilytic on spermine-induced CaSR activation (Ca2+i mobilisation)” value on human CaSR (1-10 μM calcilytic) is listed as “prevented CaSR activation by spermine”.

Turning to `NCCCNCCCCNCCCN` [spermine], on human CaSR, the “CaSR activation (Ca2+i increase) by agonist” value is given as “responds”. The “Direct bronchoconstriction, CaSR KO bronchi” value in assay [1] (knock-out mice) is recorded as “not in the intralobular bronchi of knock-out mice”. In addition, the “Direct bronchoconstriction, WT bronchi” value in assay [1] (wild-type mice) was “directly evokes bronchoconstriction”. Moreover, in assay [2] (CaSR knock-out mice), the “Effect on ACh-induced contraction, CaSR KO bronchi” value was “not seen”. Further, the “Effect on ACh-induced contraction, WT bronchi” value in assay [2] (wild-type mice) is “increases the response to acetylcholine-mediated contraction”. Also, on CaSR in human ASM cells, the “Increase in Ca2+i evoked by agonist in human ASM cells” value is recorded as “evoke increases in Ca^2+i”.

As for poly-L-arginine [reference compound], at human CaSR, the “CaSR activation (Ca2+i increase) by agonist” value is reported as “responds”. In addition, the “Effect on response to methacholine (Penh)” value with BalbC mice is “significantly enhanced”.

B1: ECPs: eosinophil cationic protein, novel agonist at the human CaSR (protein, UniProt P12724 28-160, looked up)
Eosinophil cationic protein: RPPQFTRAQWFAIQHISLNPPRCTIAMRAINNYRWRCKNQNTFLRTTFANVVNVCGNQSIRCPHNRTLNNCHRSRFRVPLLHCDLINPGAQNISNCTYADRPGRRFYVVACDNRDPRDSPRYPVVPVHLDTTI
In the case of B1, the “CaSR activation (Ca2+i increase) by agonist” value with human CaSR is recorded as “agonists at the CaSR”. The “Increase in Ca2+i evoked by agonist in human ASM cells” value with CaSR in human ASM cells is listed as “evoke increases in Ca^2+i”.
